GI50 data for 21 compounds are collected here from patent publication US12227511B2, “Bicyclic compounds as kinase modulators, methods and uses thereof” (Agency for Science, Technology and Research, priority 2018, dated 2025).

Where a name gives a salt, the structure may show the parent alone. Bounds are passed on as bounds.

By GI50 is commonly meant the concentration giving 50% growth inhibition.

The subject of this assay is HCCLM3 cells. Nature of the assay: GI50 in HCCLM3 cells, cell viability by MTS assay. It is filed as cell-based. As to conditions: Homo sapiens, 72 hours incubation, triplicates, read-out: HCCLM3 activity range (GI50). How it is done: To investigate the effects of compounds on hepatocellular carcinoma (HCC) cell viability, HCCLM3 cells (HCC cells with high metastatic potential) were incubated with increasing concentrations of test compounds for 72 hours. Cell viability was evaluated at the end of incubation period by MTS assay. […] All samples were evaluated in triplicates.
As set forth in Table 1 below, GI50 values are defined as follows: GI50≤10 μM (+++); GI50>10 μM and ≤20 μM (++); GI50>20 μM (+).
(Formazan colour is commonly taken as a measure of viable cells.)
`CCOC(=O)[C@@H]1C2CCC(CC2)[C@H]1NC(=O)C1(C(=O)Nc2ccc(Oc3ccnc4cc(OC)c(OC)cc34)cc2)CC1` [Compound 16, ethyl (2R,3R)-3-(1-((4-((6,7-dimethoxyquinolin-4-yl)oxy)phenyl)carbamoyl)cyclopropane-1-carboxamido)bicyclo[2.2.2]octane-2-carboxylate]: the GI50 is greater than 20 µM.

In the case of `COc1cc2nccc(Oc3ccc(NC(=O)C4(C(=O)N5CC6CC6C5)CC4)cc3)c2cc1OC` (stereo not drawn) [Compound 27, 1-(3-azabicyclo[3.1.0]hexane-3-carbonyl)-N-(4-((6,7-dimethoxyquinolin-4-yl)oxy)phenyl)cyclopropane-1-carboxamide], the GI50 is greater than 20 µM.

For `COc1cc2nccc(Oc3ccc(NC(=O)C4(C(=O)NC56CC7CC(CC(C7)C5)C6)CC4)cc3)c2cc1OC` [Compound 28, N-((3R,5R)-adamantan-1-yl)-N-(4-((6,7-dimethoxyquinolin-4-yl)oxy)phenyl)cyclopropane-1,1-dicarboxamide], the GI50 lay within 10 to 20 µM.

As to `COc1cc2nccc(Oc3ccc(NC(=O)C45CC(C(=O)NC6CC6)(C4)C5)cc3)c2cc1OC` [Compound 36, N1-cyclopropyl-N3-(4-((6,7-dimethoxyquinolin-4-yl)oxy)phenyl)bicyclo[1.1.1]pentane-1,3-dicarboxamide], the GI50 is greater than 20 µM.

As to `COc1cc2nccc(Oc3ccc(NC(=O)C4(C(=O)NC56CC(C(F)(F)F)(C5)C6)CC4)cc3)c2cc1OC` [Compound 11, N-(4-((6,7-dimethoxyquinolin-4-yl)oxy)phenyl)-N-(3-(trifluoromethyl)bicyclo[1.1.1]pentan-1-yl)cyclopropane-1,1-dicarboxamide], the GI50 is no more than 10 µM.

Regarding `COc1cc2nccc(Oc3ccc(NC(=O)C45CC(C(=O)N6CC7CC7C6)(C4)C5)cc3)c2cc1OC` (stereo not drawn) [Compound 35, 3-(3-azabicyclo[3.1.0]hexane-3-carbonyl)-N-(4-((6,7-dimethoxyquinolin-4-yl)oxy)phenyl)bicyclo[1.1.1]pentane-1-carboxamide], the GI50 was greater than 20 µM.

In the case of `COc1cc2nccc(Oc3ccc(NC(=O)C4(C(=O)NC56CC(C(=O)N(C)C)(C5)C6)CC4)cc3)c2cc1OC` [Compound 8, N-(4-((6,7-dimethoxyquinolin-4-yl)oxy)phenyl)-N-(3-(dimethylcarbamoyl)bicyclo[1.1.1]pentan-1-yl)cyclopropane-1,1-dicarboxamide], the GI50 is greater than 20 µM.

Consider `COc1cc2nccc(Oc3ccc(NC(=O)C4(C(=O)NC56CC(C#N)(C5)C6)CC4)cc3)c2cc1OC` [Compound 33, N-(3-cyanobicyclo[1.1.1]pentan-1-yl)-N-(4-((6,7-dimethoxyquinolin-4-yl)oxy)phenyl)cyclopropane-1,1-dicarboxamide], for which the GI50 was in the range of 10 to 20 µM.

For the compound `COC(=O)C12CCC(NC(=O)C3(C(=O)Nc4ccc(Oc5ccnc6cc(OC)c(OC)cc56)cc4)CC3)(CC1)CC2` [Compound 15, methyl 4-(1-((4-((6,7-dimethoxyquinolin-4-yl)oxy)phenyl)carbamoyl)cyclopropane-1-carboxamido)bicyclo[2.2.2]octane-1-carboxylate], the GI50 is greater than 20 µM.

Consider `COc1cc2nccc(Oc3ccc(NC(=O)C4(C(=O)NC56CC(N)(C5)C6)CC4)cc3)c2cc1OC` [Compound 12, N-(3-aminobicyclo[1.1.1]pentan-1-yl)-N-(4-((6,7-dimethoxyquinolin-4-yl)oxy)phenyl)cyclopropane-1,1-dicarboxamide], for which the GI50 is greater than 20 µM.

For the compound `COc1cc2nccc(Oc3ccc(NC(=O)C4(C(=O)NC56CC5CN(C(C)=O)C6)CC4)cc3)c2cc1OC` (stereo not drawn) [Compound 18, N-(3-acetyl-3-azabicyclo[3.1.0]hexan-1-yl)-N-(4-((6,7-dimethoxyquinolin-4-yl)oxy)phenyl)cyclopropane-1,1-dicarboxamide], the GI50 was greater than 20 µM.

Take `COC(=O)C12CC(NC(=O)C3(C(=O)Nc4ccc(Oc5ccnc6cc(OC)c(OC)cc56)cc4)CC3)(C1)C2` [Compound 31, methyl 3-(1-((4-((6,7-dimethoxyquinolin-4-yl)oxy)phenyl)carbamoyl)cyclopropane-1-carboxamido)bicyclo[1.1.1]pentane-1-carboxylate]: the GI50 is no more than 10 µM.

For the compound `COc1cc2nccc(Oc3ccc(NC(=O)C4(C(=O)NC56CC(C(=O)O)(C5)C6)CC4)cc3)c2cc1OC` [Compound 29, 3-(1-((4-((6,7-dimethoxyquinolin-4-yl)oxy)phenyl)carbamoyl)cyclopropane-1-carboxamido)bicyclo[1.1.1]pentane-1-carboxylic acid hydrochloride], the GI50 was greater than 20 µM.

On to `COc1cc2nccc(Oc3ccc(NC(=O)C4(C(=O)NC56CCC(CC5)CC6)CC4)cc3)c2cc1OC` [Compound 24, N-(bicyclo[2.2.2]octan-1-yl)-N-(4-((6,7-dimethoxyquinolin-4-yl)oxy)phenyl)cyclopropane-1,1-dicarboxamide], for which the GI50 lay in the range of 10 to 20 µM.

Take `COc1cc2nccc(Oc3ccc(NC(=O)C4(C(=O)NC56CC(C(N)=O)(C5)C6)CC4)cc3)c2cc1OC` [Compound 7, N-(3-carbamoylbicyclo[1.1.1]pentan-1-yl)-N-(4-((6,7-dimethoxyquinolin-4-yl)oxy)phenyl)cyclopropane-1,1-dicarboxamide]: the concentration for 50% growth inhibition (GI50) was greater than 20 µM.

Consider `COCC12CC(NC(=O)C3(C(=O)Nc4ccc(Oc5ccnc6cc(OC)c(OC)cc56)cc4)CC3)(C1)C2` [Compound 30, N-(4-((6,7-dimethoxyquinolin-4-yl)oxy)phenyl)-N-(3-(methoxymethyl)bicyclo[1.1.1]pentan-1-yl)cyclopropane-1,1-dicarboxamide], for which the GI50 lay in the range of 10 to 20 µM.

Take `COc1cc2nccc(Oc3ccc(NC(=O)C4(C(=O)N5[C@@H]6CC[C@H]5C[C@H](C#N)C6)CC4)cc3)c2cc1OC` [Compound 21, EXO-1-(3-cyano-8-azabicyclo[3.2.1]octane-8-carbonyl)-N-(4-((6,7-dimethoxyquinolin-4-yl)oxy)phenyl)cyclopropane-1-carboxamide]: the GI50 was greater than 20 µM.

On to `COc1cc2nccc(Oc3ccc(NC(=O)C45CC(C(=O)NC67CCC(CC6)C7)(C4)C5)cc3)c2cc1OC` [Compound 34, N1-((1s,4s)-bicyclo[2.2.1]heptan-1-yl)-N3-(4-((6,7-dimethoxyquinolin-4 yl)oxy)phenyl)bicyclo[1.1.1]pentane-1,3-dicarboxamide], for which the GI50 is greater than 20 µM.

With `COc1cc2nccc(Oc3ccc(NC(=O)C4(C(=O)N5C[C@@H]6COC[C@@H](C6)C5)CC4)cc3)c2cc1OC` [Compound 20, 1-((1R,5S)-3-oxa-7-azabicyclo[3.3.1]nonane-7-carbonyl)-N-(4-((6,7-dimethoxyquinolin-4-yl)oxy)phenyl)cyclopropane-1-carboxamide], the GI50 was greater than 20 µM.

Take `COc1cc2nccc(Oc3ccc(NC(=O)C4(C(=O)NC5C[C@H]6CC[C@@H](C5)N6C)CC4)cc3)c2cc1OC` (stereo partly drawn) [Compound 23, ENDO-N-(4-((6,7-dimethoxyquinolin-4-yl)oxy)phenyl)-N-((1R,3r,5S)-8-methyl-8-azabicyclo[3.2.1]octan-3-yl)cyclopropane-1,1-dicarboxamide]: the GI50 is greater than 20 µM.

For `COc1cc2nccc(Oc3ccc(NC(=O)C4(C(=O)N5[C@@H]6CC[C@H]5C[C@@H](OC)C6)CC4)cc3)c2cc1OC` [Compound 19, N-(4-((6,7-dimethoxyquinolin-4-yl)oxy)phenyl)-1-((1R,3r,5S)-3-methoxy-8-azabicyclo[3.2.1]octane-8-carbonyl)cyclopropane-1-carboxamide], the GI50 was greater than 20 µM.
